How the values were obtained:
[1] = test system: HL-60 cells; assay: HL-60 cells in PM1 and PM2 plates, MTS/MPMS color, % negative control; assay type: cell-based, human; settings: for response of HL-60 cells: in the presence of added pyruvate
[2] = test system: HepG2 cells; assay: HepG2 cells cultured on CYTODEX 3 microcarriers, energy sources; assay type: cell-based, human; settings: Homo sapiens, HepG2, 68 h, read-out: Responses of HepG2 Cells Cultured on Microcarriers After 68 hours in Culture and a 4 hour Color Development Period; for activity at 30 µM: Conc. 0.03 mM; for activity at 100 µM: Conc. 0.10 mM; for activity at 330 µM: Conc. 0.33 mM; for activity at 1000 µM: Conc. 1.00 mM; for activity at 3300 µM: Conc. 3.3 mM; for activity at 10000 µM: Conc. 10 mM; for activity at 15000 µM: Conc. 15 mM; for activity at 20000 µM: Conc. 20 mM
Method in brief: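 HepG2 cells on CYTODEX 3 microcarriers, held in methylcellulose-containing DME with 10% HI FBS lacking glucose, glutamine and pyruvate, exposed to test energy sources at 0.033–20 mM final. After 68 h at 37 °C, MTS/PMS read at 490 nm (ref 650 nm) after 4–8 h; cell-free background subtracted, normalized to % no-energy-source control.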

[3] = test system: ten strains of E. coli; assay type: cell-based, Escherichia coli; also: key: +: indicates that the organism tested was capable of utilizing the carbon source listed; −: indicates that the organism tested was not capable of utilizing the carbon source listed; indicates weak positive reactions
[4] = test system: A549 cells; assay: Substrate utilization by A549 cells at increasing serum, with and without free amino acids; assay type: cell-based; settings: varying FCS, presence and absence of free amino acids (FIG. 11)
Method: Briefly, A549 cells were suspended in RPMI-salts+RPMI-vitamins+1× Pen/Strep with or without RPMI-amino acids at 400,000 cells/mL and dispensed in 50 uL to wells containing a testing substrates (e.g., inosine, pyruvic acid, glucose, L-glutamine, L-arginine, etc.) and FCS to achieve the indicated final concentrations. The cells were incubated for 2 days at 37° C. under 5% CO2-95% air (pre-incubation phase), before a redox dye mix was added. The cells were incubated for an additional 5 hr at 37° C. under 5% CO2-95% air (incubation phase), before color development was measured.

[5] = test system: Salmonella typhimurium auxotrophs hisF645 and pyrCΔ73; assay type: cell-based
[6] = test system: E. coli MG1655; assay type: cell-based, Escherichia coli
[7] = test system: Saccharomyces cerevisiae (BY4741); assay: Nutrient stimulation in EA MICROPLATE without methionine; assay type: cell-based; settings: medium without methionine, 30° C., 2 days
[8] = test system: E. coli MG1655; assay type: cell-based, Escherichia coli; remark: listed apart in the source
[9] = test system: TK-1 cells; assay: TK-1 cells in PM1 and PM2 plates, with or without 0.5 mM sodium pyruvate; assay type: cell-based, mouse; settings: in the presence of 0.5 mM sodium pyruvate
Method: In this Example, methods for testing a murine T lymphoma cells (Butcher et al., Eur. J. Immunol., 10:556-561 [1980]), for their ability to use multiple carbon sources are described. The methods used to culture the TK-1 lymphoma cell line were similar to those used to culture HL-60 cells, as described in Example 27.
TK-1 cells were grown in Falcon tissue culture flasks with vented tops. Culture medium was RPMI 1640 medium (Invitrogen 11875) with 4.5 g/L glucose, 2 mM L-glutamine, 1 mM sodium pyruvate, 0.1 mM nonessential amino acids (NEAA), 0.05 mM 2-mercaptoethanol (2ME), 2 g/L sodium bicarbonate, 5 mg/L phenol red, 50 U/mL penicillin, 50 μg/mL streptomycin, and 10% (v/v) heat inactivated fetal bovine serum (HI FBS, Invitrogen 16140). The cells were seeded at 3×10^5/mL, subcultured at 3 days after initiation of culture to 10^6 cells/mL and used 24 hours later. During all incubations, the cells were kept in an atmosphere of 5% CO2, 90-100% humidity, and 37° C.
A viable cell count was obtained by trypan blue exclusion and an appropriate volume of the cell suspension was placed in a polypropylene centrifuge tube. The cells were washed in DPBS and then resuspended to two-thirds the final volume needed in Dulbecco ? s Modified Eagle ? s Medium (DME, Sigma D5030) with the supplements listed in Table 17, as well as 2-ME, sodium pyruvate and NEAA, and including 10% HI FBS, but without glucose, L-glutamine, sodium pyruvate, and phenol red. This medium is termed DME-RTK. An aliquot was counted by trypan blue exclusion and the cell density was adjusted to 1×10^6/mL. Fifty μL of DME-RTK were added to each well of the appropriate number of half area, 96-well plates (PM1 and PM2 MICROPLATE testing plates). The cells were divided into two lots and one lot received a 1/100 dilution of 100 mM sodium pyruvate (final concentration, 0.5 mM). Cells from both lots were plated at a final cell density of 5×10^4/well (50 μL/well). For each plate containing chemicals and cells, a second, control plate containing only chemicals was prepared. Plates were incubated at 5% CO2, 90-100% humidity, and 37° C. for 1 hour prior to addition of the MTS/MPMS colorimetric reagent (5 μL/well). The color formed in each well 24 hours after addition of the colorimetric reagent, was measured with a plate reader at 490 nm with a reference wavelength of 650 nm. OD values from the control plate were subtracted from the OD values obtained with cells prior to normalizing the data to % negative control.

[10] = test system: IMR-90 cells; assay: Testing of IMR-90 cells in PM1a testing plates; assay type: cell-based; settings: for cellular morphology (microscopic): approximately 4.5 hours at 37° C.
Method: IMR-90 cells were cultured in DMEM in 150 mm diameter petri dishes to near confluence under suitable conditions (e.g., 5% CO2, at 37° C.). The cells were harvested from 19 petri dishes, using the standard trypsin-EDTA procedure to detach the cells (i.e., 5 minute treatment with trypsin-EDTA), pooled and centrifuged at 1000×g for 5 minutes at 2-8° C., and resuspended in HBSS without phenol red. The cells were again centrifuged and resuspended in 24 ml inoculating fluid (IF-h). The cell density as determined by measurement using a Coulter Counter was about 3,000,000 cells/ml. Two-fold serial dilutions were prepared using prewarmed inoculating fluid, by mixing 12 ml of cell suspension with 12 ml IF-h, to produce six suspensions having 3,000,000 cells/ml (undiluted), 1,500,000 cells/ml, 750,000 cells/ml, 375,000 cells/ml, 187,500 cells/ml, and 93,750 cells/ml. A “no cell” control was also prepared, using 12 ml inoculating fluid. Each of the cell suspensions was then immediately inoculated into a PM1a PHENOTYPE MICROARRAY testing panel (Biolog), with about 100 μl of suspension added per well.
After approximately 4.5 hours of incubation at 37° C. in a CO2 incubator, the PHENOTYPE MICROARRAY testing panels were visually examined. […] The amount of background pink color was somewhat varied, depending upon the cell concentration. At the highest cell densities, there was a light pink color in all of the wells.

[11] = test system: A549 cells; assay: Metabolic profile of A549 cells with 5% or 20% dialyzed or non-dialyzed FCS; assay type: cell-based; settings: FCS 5% or 20%, dialyzed or not (FIG. 10)
Method: Briefly, A549 cells were suspended at 400,000 cells/mL in RPMI-salts+RPMI-vitamins+1× Pen/Strep (Penicillin/Streptomycin) without amino acids but containing either 5% or 20% dialyzed or non-dialyzed FCS. Cells were dispensed in 50 uL to wells containing a plurality of testing substrates (glycogen, glucose and pyruvate among others) at final concentrations of 20, 15, 10.5, 2.5 and 1.2 mM of each testing substrate. The cells were incubated for 2 days at 37° C. under 5% CO2-95% air (pre-incubation phase), before a redox dye mix was added. The cells were incubated for an additional 5 hr at 37° C. under 5% CO2-95% air (incubation phase), before color development was measured.

[12] = test system: A549 cells; assay: Glucose utilization by A549 cells in response to insulin, cross-titration; assay type: cell-based; settings: cross titration format (FIG. 12)
Method: Briefly, A549 cells were suspended in RPMI-salts+RPMI-vitamins+1× Pen/Strep without amino acids at 400,000 cells/mL and dispensed in 50 uL to wells containing glucose to achieve the indicated final glucose concentrations. Insulin was then added to achieve the indicated final insulin concentrations. The cells were adapted to glucose by maintaining the cells for 2 days at 37° C. under 5% CO2-95% air (pre-incubation phase), before a redox dye mix was added. Color development was measured after maintaining the cells for an additional 5 hr at 37° C. under 5% CO2-95% air (incubation phase).

In the case of `O=C(O)CC(O)(CC(=O)O)C(=O)O` [Citric acid], the response in words ([1]; L-glutamine 13.7 mM (well E1), citric acid 10.4 mM (well F2)) was “inhibitory response”, the activity at 30 µM [2] was 103% and the activity at 100 µM [2] was 111%. The activity at 330 µM [2] was 112%, the activity at 1000 µM [2] was 116% and the activity at 3300 µM [2] was 131%. For the same compound, the activity at 10000 µM [2] was 46.8%, the activity at 15000 µM [2] was 31.5% and the activity at 20000 µM [2] was 20.3%. For the same compound, the carbon source utilization [3] was “−”.
For `OC[C@H]1O[C@@H](n2cnc3c(O)ncnc32)[C@H](O)[C@@H]1O` [Inosine], the “rate of substrate use (dye reduction)” value [4] was “used more rapidly in the presence of amino acids”, the “growth stimulation (well color)” value [5] was “turned weakly purple” and the “suitability as nitrogen source (growth, purple color)” value (from here on “suitability as nitrogen source”) [6] was “not suitable”. The carbon source utilization [3] was “+”.
For `CSCC[C@H](N)C(=O)O` [L-methionine], the “stimulation of growth/respiration (pink color)” value [7] was “increased pink color”, the “suitability as sulfur source (growth, purple color)” value [8] was “positive” and the “suitability as nitrogen source” value [6] was “not suitable”.
With `O=C1CC[C@@H](C(=O)O)N1` [L-pyroglutamic acid] the “response of TK-1 cells” value [9] was “gained responses”, the “response of HL-60 cells” value [1] was “unable to respond” and the “suitability as nitrogen source” value [6] was “not suitable”.
In the case of `CC(=O)C(=O)O` [Pyruvic acid], the “rate of substrate use (dye reduction)” value [4] was “used more rapidly in the absence of amino acids”, the “cellular morphology (microscopic)” value [10] was “the cells looked healthy” and the dye reduction [11] was “stimulated A549 cell mediated dye reduction”. The carbon source utilization [3] was “+”.
For `N[C@@H](CCC(=O)N[C@@H](CS)C(=O)NCC(=O)O)C(=O)O` [glutathione (reduced form)], the “stimulation of growth/respiration (pink color)” value [7] was “increased pink color”, the “suitability as sulfur source (growth, purple color)” value [8] was “positive” and the “suitability as nitrogen source” value [6] was “not suitable”.
`Cc1ncc(CO)c(CO)c1O` [pyridoxine] was tested, and the “stimulation of growth/respiration (pink color)” value [7] was “increased pink color”.
With `OC[C@H]1O[C@H](O)[C@H](O)[C@@H](O)[C@@H]1O` [α-D-glucose] the color of well ([10]; 24 hours of incubation) was “distinctly darker clump of red cells”, the “cellular morphology (microscopic)” value [10] was “the cells looked healthy” and the activity at 30 µM [2] was 96.3%. The activity at 100 µM [2] was 112%, the activity at 330 µM [2] was 126% and the activity at 1000 µM [2] was 122%. For the same compound, the activity at 3300 µM [2] was 132%, the activity at 10000 µM [2] was 110% and the activity at 15000 µM [2] was 84%. The activity at 20000 µM [2] was 50.3%, the dye reduction [11] was “stimulated A549 cell mediated dye reduction” and the carbon source utilization [3] was “+”.
In the case of `NCCCC(=O)O` [γ-aminobutyric acid], the “response of TK-1 cells” value [9] was “gained responses” and the “response of HL-60 cells” value [1] was “unable to respond”.
With glycogen the “response of TK-1 cells” value [9] was “lost responses” and the dye reduction [11] was “stimulated A549 cell mediated dye reduction”.
For insulin, the “effect on glucose depletion (dye reduction)” value [12] was “insulin dependent depletion of a glucose substrate”.
